For data set [1], the system named is male Hilltop ICR-derived mice. In words: Maximal electroshock test in mice. Type of data set: in vivo. The settings on record: Mus musculus, ip, 0.25 h; dosed intraperitoneally in saline 15 minutes prior to transcorneal maximal electroshock (50 milliamps, 0.2 seconds); antagonism of tonic extension; read-out: ED50 (95% confidence limits). As for the experimental part: This test was performed in the standard manner, essentially as described by Swinyard et al., J. Pharm. Exp. Ther., Vol. 106, pp. 319-330 (1952). Groups of 8-10 male Hilltop ICR-derived mice weighing 20-30 grams were dosed intraperitoneally with a solution or suspension of drug in saline 15 minutes prior to a transcorneal maximal electroshock (50 milli- amps, 0.2 seconds). […] An active compound was capable of antagonizing the occurrence of the tonic extension which occurred immediately after the electroshock.

Data set [2] can be described thus: Acute oral toxicity in mice. The settings on record: mouse, in vivo; single oral dose by stomach tube, aqueous carboxymethyl cellulose vehicle, observed for three weeks. As for the experimental part:
The following example illustrates acute oral toxicity of a representative compound.
Protocol: The test compound, l-[2-(2-naphthyl)-2-(methoxy)ethyl'imidazole hydrochloride, is suspended in an aqueous carboxymethyl cellulose suspending vehicle. Concentrations are adjusted so that doses can be given in volumes of 10 ml./kg. body weight. Groups of mice comprising six Swiss-Webster male mice in each group are used. A single oral dose, by stomach tube, of a final dosage of test compound is administered to the mice in each group. Each group receives a different dosage, one group serving as a control. After administration the mice are observed for a three week period.

Results on eight molecules are retold here after patent publication EP0013786A1, “Imidazole derivatives, pharmaceutical compositions containing them and their preparation” (SYNTEX (U.S.A.) INC., priority 1979, dated 1980).

A word on the ED50: it is the dose that gives a 50% effect, or the effect in half of the subjects. What is called LD50 is the dose expected to kill half of the subjects tested. Higher therefore signals lower toxicity.

As to `COC(Cn1ccnc1)c1cccc2ccccc12` (stereo not drawn) [1-[2-(1-naphthyl)-2-(methoxy)ethyl]imidazole], the 50% effective dose (ED50) in data set [1] was determined as 19.4 mg/kg. Turning to `CCCCOC(Cn1ccnc1)c1cccc2ccccc12` (stereo not drawn) [1-[2-(1-naphthyl)-2-(n-butoxy)ethyl]imidazole], the median effective dose (ED50) in data set [1] amounted to 16 mg/kg.

For `Cc1ccccc1OC(Cn1ccnc1)c1ccc2ccccc2c1` (stereo not drawn) [1-[2-(2-naphthyl)-2-(2-methylphenoxy)ethyl]imidazole], the 50% effective dose (ED50) in data set [1] is 32.6 mg/kg. Regarding `CCOC(Cn1ccnc1)c1ccc2ccccc2c1` (stereo not drawn) [1-[2-(2-naphthyl)-2-(ethoxy)ethyl]imidazole], the 50% effective dose (ED50) in data set [1] was found to be 11.4 mg/kg. For `COC(Cn1ccnc1)c1ccc2ccccc2c1.Cl` (stereo not drawn) [1-[2-(2-naphthyl)-2-(methoxy)ethyl]imidazole hydrochloride], in data set [2], the LD50 at 504 h is approximately 100 mg/kg. In addition, the median effective dose (ED50) in data set [1] stood at 10.4 mg/kg. With `CSC(Cn1ccnc1)c1ccc2ccccc2c1` (stereo not drawn) [1-[2-(2-naphthyl)-2-(methylthio)ethyl]imidazole], in data set [1], the 50% effective dose (ED50) turned out to be 37.1 mg/kg. `c1ccc(OC(Cn2ccnc2)c2ccc3ccccc3c2)cc1` (stereo not drawn) [1-[2-(2-naphthyl)-2-(phenoxy)ethyl]imidazole]: the ED50 in data set [1] was determined as 15.1 mg/kg.

For `Cl.Clc1ccc(OC(Cn2ccnc2)c2ccc3ccccc3c2)cc1` (stereo not drawn) [1[2-(2-naphthyl)-2-(4-chlorophenoxy)ethyl]imidazole hydrochloride], the ED50 in data set [1] came to 46.3 mg/kg.
